Measurements published in ChEMBL document CHEMBL1201862, “PubChem BioAssay data set” (2004).
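Tested at 5 concentrations; 48 h exposure; 96-well plates; endpoints linearly interpolated, else capped at highest concentration. GI50 marks 50% less growth.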 Active and inactive are the calls of the source. Cut-off read from the data, not from the text of the source: active = GI50 up to about 1.1 µM and inactive = higher.

Columns and labels:
Assay in all cases: growth of human tumour cells (NCI), 48 h
NCI-H23 = test system: NCI-H23
SK-MEL-2 = test system: SK-MEL-2
MCF7 = test system: MCF7
HL-60 = test system: HL-60
TK-10 = test system: TK-10
SK-MEL-5 = test system: SK-MEL-5
OVCAR-4 = test system: OVCAR-4
HCC 2998 = test system: HCC 2998
RPMI-8226 = test system: RPMI-8226
U-251 = test system: U-251
OVCAR-8 = test system: OVCAR-8
HOP-92 = test system: HOP-92
CAKI-1 = test system: CAKI-1
UO-31 = test system: UO-31
SN12C = test system: SN12C
HOP-62 = test system: HOP-62
SF-268 = test system: SF-268
HT-29 = test system: HT-29
Malme-3M = test system: Malme-3M

Measured: GI50

CCOC(=O)CCSS(=O)(=O)C(F)(F)F
inactive: NCI-H23 > 100 µM | SK-MEL-2 > 100 µM | MCF7 > 100 µM | HL-60 > 100 µM | TK-10 > 100 µM | SK-MEL-5 > 100 µM | OVCAR-4 > 100 µM | HCC 2998 > 100 µM | RPMI-8226 > 100 µM | U-251 > 100 µM | OVCAR-8 > 100 µM | HOP-92 > 100 µM | CAKI-1 > 100 µM | UO-31 > 100 µM | SN12C > 100 µM | HOP-62 > 100 µM

O=C(NC(Cc1ccc(I)cc1)C(=O)O)c1ccc(I)cc1 (stereo not given)
inactive: NCI-H23 > 80.2 µM | SK-MEL-2 > 80.4 µM | MCF7 > 50.4 µM | HL-60 > 62.1 µM | SF-268 > 60 µM | SK-MEL-5 > 75.3 µM | OVCAR-4 51.4 µM | HCC 2998 > 41.7 µM | HT-29 > 100 µM | RPMI-8226 40.3 µM | U-251 62.1 µM | OVCAR-8 > 74.8 µM | HOP-92 66.7 µM | Malme-3M 67.1 µM | CAKI-1 > 100 µM | UO-31 14.5 µM | SN12C > 100 µM | HOP-62 72.3 µM

CC(NC(=O)C(C)NC(=O)C(N)CCP(C)(=O)O)C(=O)O (stereo not given)
inactive: NCI-H23 > 100 µM | SK-MEL-2 > 100 µM | MCF7 > 100 µM | HL-60 > 100 µM | SF-268 > 100 µM | SK-MEL-5 > 100 µM | OVCAR-4 > 100 µM | HCC 2998 > 100 µM | HT-29 > 100 µM | RPMI-8226 > 100 µM | U-251 > 100 µM | OVCAR-8 > 100 µM | HOP-92 > 100 µM | Malme-3M > 100 µM | CAKI-1 > 100 µM | UO-31 > 100 µM | SN12C > 100 µM | HOP-62 > 100 µM

COc1ccccc1Cc1nc(-c2ccccc2)nn(C2OC(COC(C)=O)C(OC(C)=O)C(OC(C)=O)C2OC(C)=O)c1=S (stereo not given)
inactive: NCI-H23 11.2 µM | SK-MEL-2 11.3 µM | MCF7 6.84 µM | HL-60 > 64.7 µM | SF-268 6.1 µM | SK-MEL-5 8.73 µM | OVCAR-4 3.31 µM | HCC 2998 > 24.8 µM | HT-29 > 48.3 µM | RPMI-8226 21.8 µM | U-251 13.2 µM | OVCAR-8 5.64 µM | HOP-92 7.31 µM | Malme-3M 5.53 µM | CAKI-1 16.8 µM | UO-31 > 48.2 µM | SN12C 9.35 µM | HOP-62 10.1 µM
